Biological target: T1, human TLR7 (Homo sapiens, UniProt Q9NYK1)
T1 construct: host or cells: HEK293
T1 sequence (Q9NYK1 27-1049): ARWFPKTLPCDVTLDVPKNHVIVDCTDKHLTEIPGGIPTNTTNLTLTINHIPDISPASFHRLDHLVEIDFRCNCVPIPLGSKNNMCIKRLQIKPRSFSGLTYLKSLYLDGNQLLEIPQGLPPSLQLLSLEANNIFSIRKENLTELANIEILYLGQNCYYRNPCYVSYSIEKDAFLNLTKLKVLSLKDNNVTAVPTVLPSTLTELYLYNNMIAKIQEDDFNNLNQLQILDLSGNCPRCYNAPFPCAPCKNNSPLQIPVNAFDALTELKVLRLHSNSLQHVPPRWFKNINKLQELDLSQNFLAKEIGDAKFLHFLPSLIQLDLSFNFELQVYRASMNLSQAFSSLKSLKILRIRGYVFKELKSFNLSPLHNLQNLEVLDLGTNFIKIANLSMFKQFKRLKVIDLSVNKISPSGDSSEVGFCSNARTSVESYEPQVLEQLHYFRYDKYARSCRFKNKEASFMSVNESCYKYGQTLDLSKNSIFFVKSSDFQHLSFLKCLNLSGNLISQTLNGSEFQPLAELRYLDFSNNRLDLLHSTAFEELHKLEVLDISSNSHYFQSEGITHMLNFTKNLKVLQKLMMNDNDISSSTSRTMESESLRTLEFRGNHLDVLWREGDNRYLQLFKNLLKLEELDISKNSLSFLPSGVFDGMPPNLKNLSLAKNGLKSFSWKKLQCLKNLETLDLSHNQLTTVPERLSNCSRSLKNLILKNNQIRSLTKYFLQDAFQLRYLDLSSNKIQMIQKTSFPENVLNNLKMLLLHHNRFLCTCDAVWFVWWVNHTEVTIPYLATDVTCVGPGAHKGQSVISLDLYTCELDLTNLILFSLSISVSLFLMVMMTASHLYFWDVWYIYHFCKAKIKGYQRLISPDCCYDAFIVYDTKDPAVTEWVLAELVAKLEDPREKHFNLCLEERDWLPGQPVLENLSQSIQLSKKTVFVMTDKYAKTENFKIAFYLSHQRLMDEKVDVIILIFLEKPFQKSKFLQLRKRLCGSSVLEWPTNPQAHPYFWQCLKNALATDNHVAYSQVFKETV
Assay: TLR7 reporter cell assay (HEK293 cells stably expressing human TLR7 with NF-κB-driven SEAP reporter)
Type: cell-based
Settings: 15-24 hours
Procedure, shortened: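 HEK293 cells stably expressing human TLR7 with an NF-κB-driven SEAP reporter, treated with compound for 15-24 hours. SEAP read at OD 650 nm. EC50 fitted by nonlinear least squares, maximum set by 28.5 μM resiquimod.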

Emax at 500 µM (HEK293, 500 μM compound, SEAP activity (OD 650 nm) relative to 28.5 μM resiquimod, read-out: Response at 500 μM Compound as a Percent of Resiquimod Response): 74%
EC50 (fit of SEAP dose response, ymax from 28.5 μM resiquimod): 51 µM
Compound: CC[C@H](O)[C@@H]1C[C@@H](O)[C@H](n2c(=O)sc3c(=O)[nH]c(N)nc32)O1 [Compound A, 5-amino-3-((2R,3R,5S)-3-hydroxy-5-((S)-1-hydroxypropyl)tetrahydrofuran-2-yl)thiazolo[4,5-d]pyrimidine-2,7(3H,6H)-dione, reference compound]

From patent US12187759B2, “TLR7 agonists” (Primmune Therapeutics, Inc., priority 2019, dated 2025)
